Laboratory results from ChEMBL document CHEMBL1136636, “Carbonic anhydrase inhibitors: inhibition of the tumor-associated isozyme IX with aromatic and heterocyclic sulfonamides” (Bioorg Med Chem Lett, 2003).
pKi: −log10 of the molar value.

How the values were obtained:
[1] = target: T1, Carbonic anhydrase 4 (Bos taurus, UniProt Q95323)
T1 sequence (Q95323 whole entry): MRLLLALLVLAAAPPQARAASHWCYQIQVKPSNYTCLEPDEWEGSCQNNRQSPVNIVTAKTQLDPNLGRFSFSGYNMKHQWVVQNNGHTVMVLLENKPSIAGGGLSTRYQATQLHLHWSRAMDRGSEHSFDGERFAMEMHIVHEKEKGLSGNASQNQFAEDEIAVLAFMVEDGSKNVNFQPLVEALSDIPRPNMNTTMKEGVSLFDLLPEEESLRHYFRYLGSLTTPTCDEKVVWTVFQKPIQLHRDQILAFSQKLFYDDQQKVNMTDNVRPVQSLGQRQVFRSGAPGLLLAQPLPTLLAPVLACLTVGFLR

[2] = target: Carbonic anhydrase 9 (Homo sapiens, UniProt Q16790)
[3] = target: Carbonic anhydrase 1 (Homo sapiens, UniProt P00915)
Sequence of Carbonic anhydrase 1 (P00915 whole entry): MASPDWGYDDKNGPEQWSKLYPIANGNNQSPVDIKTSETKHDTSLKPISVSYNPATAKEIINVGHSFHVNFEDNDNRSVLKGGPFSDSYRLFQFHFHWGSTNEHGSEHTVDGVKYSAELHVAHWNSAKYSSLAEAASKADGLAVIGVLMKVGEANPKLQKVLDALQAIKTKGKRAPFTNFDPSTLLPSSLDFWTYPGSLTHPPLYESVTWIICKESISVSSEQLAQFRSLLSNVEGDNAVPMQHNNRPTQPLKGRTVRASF

SMILES: Nc1ccc(S(=O)(=O)NCc2ccc(S(N)(=O)=O)cc2)cc1
- pKi [1]: 7.14

SMILES: Nc1ccc(S(N)(=O)=O)cc1I
- pKi [2]: 6.55

SMILES: NS(=O)(=O)c1cccc2cccnc12
- pKi [2]: 7.49
- pKi [1]: 6.38

SMILES: Nc1ccc(S(=O)(=O)Nc2ccc(S(N)(=O)=O)cc2)cc1
- pKi [2]: 7.47
- pKi [1]: 6.89

SMILES: Nc1nccc(Nc2ccc(S(N)(=O)=O)cc2)n1
- pKi [2]: 7.80

SMILES: NS(=O)(=O)c1cccc2ccccc12
- pKi [3]: 4.64
- pKi [2]: 7.52
- pKi [1]: 6.36

SMILES: Nc1ccccc1S(N)(=O)=O
- pKi [2]: 7.48

SMILES: Cn1nc(S(N)(=O)=O)sc1=N
- pKi [2]: 7.52

SMILES: NS(=O)(=O)c1ccc(CCO)cc1
- pKi [2]: 7.66

SMILES: Nc1ccc(S(N)(=O)=O)cc1F
- pKi [2]: 6.61

SMILES: NS(=O)(=O)c1ccc(CO)cc1
- pKi [2]: 7.68

SMILES: Nc1ccc(S(=O)(=O)Nc2ccccc2S(N)(=O)=O)cc1
- pKi [3]: 6.73
- pKi [1]: 6.84

SMILES: Nc1ccc(S(N)(=O)=O)cc1Cl
- pKi [2]: 6.58

SMILES: Nc1ccc(S(=O)(=O)NCCc2ccc(S(N)(=O)=O)cc2)cc1
- pKi [2]: 7.62
- pKi [1]: 7.14

SMILES: Nc1cc(C(F)(F)F)c(S(N)(=O)=O)cc1S(N)(=O)=O [2,4-DISULFAMYLTRIFLUOROMETHYLANILINE]
- pKi [1]: 6.81

SMILES: NS(=O)(=O)c1ccc(C(=O)O)cc1 [CARZENIDE]
- pKi [2]: 7.59
- pKi [1]: 7.07
